Patent publication US11667643B2, “RIP1K inhibitors” (priority 2020, dated 2023)
Where two headings read alike, the source gives them in different places.

Legend:
U937 cells = test: U937 cell necroptosis assay (TNFa + zVAD, CellTiter-Glo recovery), functional human RIP1 assay; format: cell-based; settings: Homo sapiens, U-937, 18 h, read-out: U937 Zvad TNF CTG Recovery, U937, TNFa + zVAD (IC50), U937 cells, zVAD-fmk, TNFa 2 ng/mL, 18 hours, CellTiter-Glo
Summary of the method: (§1)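 Human U937 cells (50K/well, 60 uM zVAD-fmk in plating medium) and murine L929 cells (10K/well, medium replaced with 40 uM zVAD-fmk) were pre-incubated with compound 1 h at 37 °C. TNFa was then added at a final 2 ng/mL. Viability by CellTiter-Glo luminescence after 18 h.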

RIPK1 = RIPK1 (Homo sapiens (Human), UniProt Q13546); test: biochemical; format: biochemical
Summary of the method: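 ADP-Glo luminescent assay of RIPK1 at 31 ng/well in Tris-HCl pH 7.4 buffer with MgCl2, BSA, 100 μM DTT and 4 mM MnCl2; compounds run in duplicate. Kinase reaction 30 min at 30 °C, then ADP-Glo 40 min and detection reagent 30 min at room temperature; ADP formation read as luminescence.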

L929 cells = test: L929 cell necroptosis assay (TNFa + zVAD, CellTiter-Glo recovery), functional murine RIP1 assay; format: cell-based; settings: Mus musculus, L929, 18 h, read-out: L929-CTG-recovery, L929, TNFa + zVAD (IC50), L929 cells, zVAD-fmk, TNFa 2 ng/mL, 18 hours, CellTiter-Glo
Summary of the method: as §1

[1] = RIPK1 enzyme 31 ng/well, 30° C. for 30 minutes, luminescence, read-out: RIPK1 ADP-Glo Kinase (IC50)

Sequence of RIPK1 (Q13546 whole entry, species assumed): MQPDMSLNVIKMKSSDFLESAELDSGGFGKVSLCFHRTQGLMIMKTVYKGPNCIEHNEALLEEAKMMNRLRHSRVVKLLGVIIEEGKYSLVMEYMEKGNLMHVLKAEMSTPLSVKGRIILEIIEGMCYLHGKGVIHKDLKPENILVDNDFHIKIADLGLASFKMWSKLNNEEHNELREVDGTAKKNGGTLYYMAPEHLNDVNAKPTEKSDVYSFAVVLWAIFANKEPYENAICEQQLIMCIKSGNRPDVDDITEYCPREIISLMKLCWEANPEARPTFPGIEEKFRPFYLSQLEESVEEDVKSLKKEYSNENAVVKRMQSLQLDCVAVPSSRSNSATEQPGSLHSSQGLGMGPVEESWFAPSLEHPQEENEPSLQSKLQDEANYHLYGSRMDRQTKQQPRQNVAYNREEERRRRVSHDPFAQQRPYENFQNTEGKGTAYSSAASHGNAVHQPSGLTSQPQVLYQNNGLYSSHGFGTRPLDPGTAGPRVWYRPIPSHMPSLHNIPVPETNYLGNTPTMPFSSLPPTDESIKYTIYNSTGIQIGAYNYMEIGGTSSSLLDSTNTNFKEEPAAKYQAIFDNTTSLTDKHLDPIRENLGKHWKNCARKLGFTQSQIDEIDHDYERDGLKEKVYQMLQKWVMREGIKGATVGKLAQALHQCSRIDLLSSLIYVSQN

Compound	IC50 (U937 cells) [µM]	IC50 (RIPK1; [1]) [µM]	IC50 (L929 cells) [µM]	IC50 (RIPK1) [µM]
O=C(N[C@H]1COc2ccc(N3CC4(CCOCC4)C3)cc2-n2ccnc21)c1cc(Oc2ccccc2)ccn1 [Compound I-88, (R)—N-(9-(7-Oxa-2-azaspiro[3.5]nonan-2-yl)-4,5-dihydrobenzo[b]imidazo[1,2-d][1,4]oxazepin-4-yl)-4-phenoxypicolinamide]	0.163	0.112	10000	
O=C(N[C@H]1COc2ccccc2-n2c1noc2=O)c1n[nH]c(Cc2ccccc2)n1 [Compound I-41, 5-Benzyl-N-((4R)-1-oxo-4,5-dihydro-1H-benzo[6][1,2,4]oxadiazolo[4,3-d][1,4]oxazepin-4-yl)-1H-1,2,4-triazole-3-carboxamide]	0.0481	0.058	10000	
O=C(N[C@H]1COc2ccccc2-n2c1noc2=O)c1ncn(Cc2c(Cl)cccc2Cl)n1 [Compound I-42, 1-(2,6-Dichlorobenzyl)-N-((4R)-1-oxo-4,5-dihydro-1H-benzo[&][1,2,4]oxadiazolo[4,3-d][1,4]oxazepin-4-yl)-1H-1,2,4-triazole-3-carboxamide]	0.041	0.0263	10000	
CC(C)(O)C#Cc1ccc2c(c1)-n1ccnc1C(NC(=O)c1cc(Oc3ccccc3)ccn1)CC2 (racemic) [Compound I-56, (±)-N-(9-(3-Hydroxy-3-methylbut-1-yn-1-yl)-5,6-dihydro-477-benzo[f]imidazo[1,2-a]azepin-4-yl)-4-phenoxypicolinamide]	0.0345	0.0561	5.09	
O=C(NC1CCc2ccccc2-n2c1noc2=O)c1n[nH]c(Cc2ccccc2)n1 (racemic) [Compound I-48, (±)-5-Benzyl-N-(1-oxo-5,6-dihydro-1H,4H-benzo[f][1,2,4]oxadiazolo[4,3-a]azepin-4-yl)-1H-1,2,4-triazole-3-carboxamide]	0.0408	0.0534	10000	
O=C(NC1CCc2ccccc2-n2cnnc21)c1ncn(Cc2ccccc2)n1 (racemic) [Compound I-63, (±)-1-Benzyl-N-(5,6-Dihydro-4H-benzo[f][1,2,4]triazolo[4,3-a]azepin-4-yl)-1H-1,2,4-triazole-3-carboxamide]	0.289	0.134	10000	
O=C(N[C@H]1CSc2ccccc2-n2nnnc21)c1cc(Cc2ccccc2)on1 [Compound I-23, (R)-5-Benzyl-N-(4,5-dihydrobenzo[b]tetrazolo[1,5-d][1,4]thiazepin-4-yl)isoxazole-3-carboxamide]	0.101	0.0429	10000	
O=C(NC1CCc2ccc(N3CCC4(CCOCC4)CC3)cc2-n2ccnc21)c1n[nH]c(Cc2ccccc2)n1 (racemic) [Compound I-64, (±)-N-(9-(3-Oxa-9-azaspiro[5.5]undecan-9-yl)-5,6-dihydro-4H-benzo[f]imidazo[1,2-a]azepin-4-yl)-5-benzyl-1H-1,2,4-triazole-3-carboxamide]	0.0077		4.06	0.124
O=C(NC1CCc2ccc(CN3CCN(c4ccncc4)CC3)cc2-n2ccnc21)c1n[nH]c(Cc2ccccc2)n1 (racemic) [Compound I-39, (±)-5-Benzyl-N-(9-((4-(pyridin-4-yl)piperazin-1-yl)methyl)-5,6-dihydro-4H-benzo[f]imidazo[1,2-a]azepin-4-yl)-1H-1,2,4-triazole-3-carboxamide]	1.38	1.46	50.9	
O=C(N[C@H]1CSc2ccccc2-n2c1noc2=O)c1n[nH]c(Cc2ccc(F)cc2)n1 [Compound I-31, 5-(4-Fluorobenzyl)-N-((4R)-1-oxo-4,5-dihydro-1H-benzo[6][1,2,4]oxadiazolo[4,3-d][1,4]thiazepin-4-yl)-1H-1,2,4-triazole-3-carboxamide]	0.014	0.0158	5010	
